Measured values: ChEMBL document CHEMBL1269004, “Synthesis of a 6-methyl-7-deaza analogue of adenosine that potently inhibits replication of polio and dengue viruses” (J Med Chem, 2010)

What was measured:
Assay type in all cases: functional, HeLa S3
[1] = system: Enterovirus C
[2] = system: Enterovirus C; remark: listed apart in the source
[3] = system: Enterovirus C; remark: listed apart in the source
[4] = system: Enterovirus C; remark: listed apart in the source
[5] = system: Enterovirus C; remark: listed apart in the source
[6] = system: Enterovirus C; remark: listed apart in the source

Cc1ncnc2c1ncn2[C@@H]1O[C@H](CO)[C@@H](O)[C@H]1O
PFU [1]: 12
PFU [2]: 22

Cc1ncnc2c1ccn2[C@@H]1O[C@H](CO)[C@@H](O)[C@H]1O
PFU [3]: 17
PFU [4]: 19

NC(=O)c1ncn([C@@H]2O[C@H](CO)[C@@H](O)[C@H]2O)n1 [RIBAVIRIN]
PFU [5]: >250
PFU [6]: 150
